Reference: patent publication US20120129843A1, “PYRIDYL-THIAZOLYL INHIBITORS OF PRO-MATRIX METALLOPROTEINASE ACTIVATION” (priority 2010, published 2012)
Structures can show the parent of a compound that is named as a salt.

Columns and labels:
[1] = molecular target: T1, proMMP9(67-444;ΔFnII) (SEQ ID NO:5) (Homo sapiens, UniProt P14780, DEL216-390); experiment: ThermoFluor binding assay with proMMP9(67-444;ΔFnII)
T1 construct: start methionine (N); made in house; host or cells: E. coli BL21(DE3) RIL
T1 sequence (P14780 with tags, fused parts or gaps DEL216-390): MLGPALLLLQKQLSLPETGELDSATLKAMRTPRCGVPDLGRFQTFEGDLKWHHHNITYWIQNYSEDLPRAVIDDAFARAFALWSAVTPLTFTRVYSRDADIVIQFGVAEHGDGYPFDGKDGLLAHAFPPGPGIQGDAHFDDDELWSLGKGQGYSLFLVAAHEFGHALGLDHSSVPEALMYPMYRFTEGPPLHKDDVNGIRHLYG
Protocol: (§1) The ThermoFluor® (TF) assay is a 384-well plate-based binding assay that measures thermal stability of proteins (Biomol Screen 2001, 6, 429-40; Biochemistry 2005, 44, 5258-66). The experiments were carried out using instruments available from Johnson & Johnson Pharmaceutical Research & Development, LLC. TF dye used in all experiments was […] (1,8-ANS) (Invitrogen: A-47).
(§2) Compounds were arranged in a pre-dispensed plate (Greiner Bio-one: 781280), wherein compounds were serially diluted in 100% DMSO across 11 columns within a series. Columns 12 and 24 were used as DMSO reference and contained no compound. For multiple compound concentration-response experiments, the compound aliquots ([…]) were robotically predispensed directly into black 384-well polypropylene PCR microplates (Abgene: TF-0384/k) using a Cartesian Hummingbird liquid handler (DigiLab, Holliston, Mass.). Following compound dispense, protein and dye solutions were added to achieve the final assay volume of 3 μL. The assay solutions were overlayed with 1 μL of silicone oil (Fluka, type DC 200: 85411) to prevent evaporation.
(§3) Assay plates were robotically loaded onto a thermostatically controlled PCR-type thermal block and then heated from 40 to 90° C. at a ramp-rate of 1° C./min for all experiments. Fluorescence was measured by continuous illumination with UV light (Hamamatsu LC6) supplied via fiber optics and filtered through a band-pass filter (380-400 nm; >60D cutoff). Fluorescence emission of the entire 384-well plate was detected by measuring light intensity using a CCD camera (Sensys, Roper Scientific) filtered to detect 500±25 nm, resulting in simultaneous and independent readings of all 384 wells. A single image with 20-sec exposure time was collected at each temperature, and the sum of the pixel intensity in a given area of the assay plate was recorded vs temperature and fit to standard equations to yield the Tm (J Biomol Screen 2001, 6, 429-40).
(§4) Thermodynamic parameters necessary for fitting compound binding for each proMMP were estimated by differential scanning calorimetry (DSC) and from ThermoFluor® data. The heat capacity of unfolding for each protein was estimated from the molecular weight and from ThermoFluor® dosing data.
ThermoFluor® with proMMP9(67-444;ΔFnII) (SEQ ID NO:5)
The protein sample preparations had to include a desalting buffer exchange step via a PD-10 gravity column (GE Healthcare). The desalting buffer exchange was performed prior to diluting the protein to the final assay concentration of 3.5 μM proMMP9(67-444;ΔFnII) (SEQ ID NO:5). The concentration of proMMP9(67-444;ΔFnII) (SEQ ID NO:5) was determined spectrophotometrically based on a calculated extinction coefficient of ε280=33900 M^−1cm^−1, a calculated molecular weight of 22.6 kDa, and calculated pI of 5.20. ThermoFluor® reference conditions were defined as follows: 80 μg/mL (3.5 μM) proMMP9(67-444;ΔFnII) (SEQ ID NO:5), 50 μM 1,8-ANS, pH 7.0 Buffer (50 mM HEPES pH 7.0, 100 mM NaCl, 0.001% Tween-20, 2.5 mM MgCl2, 300 μM CaCl2). The thermodynamic parameters for proMMP9(67-444;ΔFnII) (SEQ ID NO:5) are as follows: Tm (° C.)=63 (+/−0.1), ΔUH(Tm) (cal mol^−1)=105000(+/−5000), ΔUS(Tm) (cal mol^−1 K^−1)=[…], ΔUCp (cal mol^−1 K^−1)=2000.

[2] = molecular target: T2, full-length proMMP9(1-707) (SEQ ID NO:1), activation by catalytic MMP3 (Homo sapiens, UniProt P14780, R574P); experiment: proMMP9/MMP3 P126 Activation Assay; type: biochemical
T2 construct: made in house; host or cells: HEK293 (proMMP9, secreted); E. coli (MMP3)
T2 sequence (P14780 20-707 R574P): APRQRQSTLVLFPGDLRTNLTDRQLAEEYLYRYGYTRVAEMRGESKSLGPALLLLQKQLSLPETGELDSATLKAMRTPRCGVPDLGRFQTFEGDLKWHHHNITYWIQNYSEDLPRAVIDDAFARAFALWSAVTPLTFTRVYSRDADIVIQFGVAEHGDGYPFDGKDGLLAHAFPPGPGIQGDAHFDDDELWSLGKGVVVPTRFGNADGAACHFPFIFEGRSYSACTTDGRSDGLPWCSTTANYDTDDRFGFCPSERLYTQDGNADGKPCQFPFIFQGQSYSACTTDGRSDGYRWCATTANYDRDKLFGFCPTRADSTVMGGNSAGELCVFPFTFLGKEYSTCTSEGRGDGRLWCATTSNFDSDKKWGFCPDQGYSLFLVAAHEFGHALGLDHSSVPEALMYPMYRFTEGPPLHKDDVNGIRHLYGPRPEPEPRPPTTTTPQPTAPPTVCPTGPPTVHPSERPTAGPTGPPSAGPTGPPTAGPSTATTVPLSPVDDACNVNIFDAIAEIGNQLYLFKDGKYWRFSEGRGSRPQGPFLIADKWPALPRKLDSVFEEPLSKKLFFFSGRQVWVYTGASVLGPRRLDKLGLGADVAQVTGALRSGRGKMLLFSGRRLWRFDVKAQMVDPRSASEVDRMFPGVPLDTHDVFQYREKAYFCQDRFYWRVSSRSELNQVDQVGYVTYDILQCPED
Protocol: proMMP9/MMP3 P126 Activation Assay
The reaction volume was 50 μL. […] Reactivity of residual MMP3 towards P-126 substrate was minimal under these conditions.

[3] = molecular target: T3, proMMP9(20-445;ΔFnII) (SEQ ID NO:6) (Homo sapiens, UniProt P14780, DEL216-390); experiment: ThermoFluor binding assay with proMMP9(20-445;ΔFnII)
T3 construct: start methionine (N); made in house; host or cells: E. coli BL21(DE3) RIL
T3 sequence (P14780 with tags, fused parts or gaps DEL216-390): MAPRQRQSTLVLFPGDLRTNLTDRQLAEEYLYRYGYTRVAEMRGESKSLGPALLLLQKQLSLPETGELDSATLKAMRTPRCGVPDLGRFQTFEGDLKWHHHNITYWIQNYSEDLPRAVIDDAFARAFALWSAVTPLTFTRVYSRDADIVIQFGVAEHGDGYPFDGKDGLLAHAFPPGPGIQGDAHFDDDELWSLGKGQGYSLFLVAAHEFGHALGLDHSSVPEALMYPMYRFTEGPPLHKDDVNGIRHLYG
Protocol: as §1, §2, §3, §4
ThermoFluor® with proMMP9(20-445;ΔFnII) (SEQ ID NO:6)
The protein sample preparations included a desalting buffer exchange step via a PD-10 gravity column (GE Healthcare). The desalting buffer exchange was performed prior to diluting the protein to the final assay concentration of 2.8 μM proMMP9(20-445;ΔFnII) (SEQ ID NO:6). The concentration of proMMP9(20-445;ΔFnII) (SEQ ID NO:6) was determined spectrophotometrically based on a calculated extinction coefficient of ε280=39880 M^−1cm^−1, a calculated molecular weight of 28.2 kDa, and calculated pI of 5.5. ThermoFluor® reference conditions were define as follows: 80 μg/mL (2.8 μM) proMMP9(20-445;ΔFnII) (SEQ ID NO:6), 50 μM 1,8-ANS, pH 7.0 Buffer (50 mM HEPES pH 7.0, 100 mM NaCl, 0.001% Tween-20, 2.5 mM MgCl2, 300 μM CaCl2). The thermodynamic parameters for proMMP9(20-445;ΔFnII) (SEQ ID NO:6) are as follows: Tm (° C.)=72 (+/−0.1), ΔUH(Tm) (cal mol^−1)=160000(+/−5000), ΔUS(Tm) (cal mol^−1 K^−1)=434, ΔUCp (cal mol^−1 K^−1)=2400.

| SMILES | Kd [1] | IC50 [2] | Kd [3] |
| --- | --- | --- | --- |
| CN1CCN(c2ccc(-c3csc(Nc4cc(S(N)(=O)=O)ccc4OC(F)(F)F)n3)cn2)CC1 [Example 30, 3-{4-[6-(4-Methyl-piperazin-1-yl)-pyridin-3-yl]-thiazol-2-ylamino}-4-trifluoromethoxy-benzenesulfonamide] | 0.69 µM | 0.75 µM | 0.43 µM |
| CN1CCN(c2ccc(-c3csc(Nc4cc(C(N)=O)ccc4OC(F)(F)F)n3)cn2)CC1 [Example 31, 3-{4-[6-(4-Methyl-piperazin-1-yl)-pyridin-3-yl]-thiazol-2-ylamino}-4-trifluoromethoxy-benzamide] | 0.61 µM | 0.64 µM | 0.11 µM |
| COc1ccc(C(N)=O)cc1Nc1nc(-c2ccc(N3CCN(C)CC3)nc2)cs1 [Example 32, 4-Methoxy-3-{4-[6-(4-methyl-piperazin-1-yl)-pyridin-3-yl]-thiazol-2-ylamino}-benzamide] | 2.3 µM | 0.84 µM | 0.36 µM |
| NC(=O)c1ccc(OC(F)(F)F)c(Nc2nc(-c3ccnc(Cl)c3)cs2)c1 [Example 34, 3-[4-(2-Chloro-pyridin-4-yl)-thiazol-2-ylamino]-4-trifluoromethoxy-benzamide.TFA] | 1.5 µM | 1.1 µM | 0.18 µM |
| CN1CCN(c2cc(-c3csc(Nc4cc(C(N)=O)ccc4OC(F)(F)F)n3)ccn2)CC1 [Example 36, 3-{4-[2-(4-Methyl-piperazin-1-yl)-pyridin-4-yl]-thiazol-2-ylamino}-4-trifluoromethoxy-benzamide.TFA] | 7.2 µM | 2.3 µM | 1.3 µM |
| CC(C)Oc1ccc(S(N)(=O)=O)cc1Nc1nc(-c2ccc(N3CCOCC3)nc2)cs1 [Example 37, 4-Isopropoxy-3-[4-(6-morpholin-4-yl-pyridin-3-yl)-thiazol-2-ylamino]-benzenesulfonamide.TFA] | 2.4 µM | ~2 µM | 1.3 µM |
| CC(C)Oc1ccc(S(N)(=O)=O)cc1Nc1nc(-c2ccc(N3CCC(N(C)C)CC3)nc2)cs1 [Example 41, 3-[4-(4-Dimethylamino-3,4,5,6-tetrahydro-2H-[1,2′]bipyridinyl-5′-yl)-thiazol-2-ylamino]-4-isopropoxy-benzenesulfonamide.TFA] | 0.22 µM | 0.059 µM | 0.051 µM |
| CC(C)Oc1ccc(S(N)(=O)=O)cc1Nc1nc(-c2ccc(NCCN(C)C)nc2)cs1 [Example 42, 3-(4-{6-[(2-Dimethylamino-ethyl)-amino]-pyridin-3-yl}-thiazol-2-ylamino)-4-isopropoxy-benzenesulfonamide.TFA] | 0.68 µM | 0.15 µM | 0.13 µM |
| CC(C)Oc1ccc(S(N)(=O)=O)cc1Nc1nc(-c2ccc(N(C)CCN(C)C)nc2)cs1 [Example 43, 3-(4-{6-[(2-Dimethylamino-ethyl)-methyl-amino]-pyridin-3-yl}-thiazol-2-ylamino)-4-isopropoxy-benzenesulfonamide.TFA] | 1.7 µM | 0.2 µM | 0.12 µM |
| CC(C)Oc1ccc(S(N)(=O)=O)cc1Nc1nc(-c2ccc(N3CCNCC3)nc2)cs1 [Example 44, 4-Isopropoxy-3-[4-(6-piperazin-1-yl-pyridin-3-yl)-thiazol-2-ylamino]-benzenesulfonamide.TFA] | 0.13 µM | 0.073 µM | 0.048 µM |

Other lines, results leading:

| Kd [1] | IC50 [2] | Kd [3] | SMILES |
| --- | --- | --- | --- |
| 0.12 µM | 0.14 µM | 0.046 µM | CC(C)Oc1ccc(S(N)(=O)=O)cc1Nc1nc(-c2ccc(N3CCN(C)CC3)nc2)cs1 [Example 33, 4-Isopropoxy-3-{4-[6-(4-methyl-piperazin-1-yl)-pyridin-3-yl]-thiazol-2-ylamino}-benzenesulfonamide.HCl] |
| 0.46 µM | 0.11 µM | 0.19 µM | CC(C)Oc1ccc(S(N)(=O)=O)cc1Nc1nc(-c2ccnc(N3CCN(C)CC3)c2)cs1 [Example 35, 4-Isopropoxy-3-{4-[2-(4-methyl-piperazin-1-yl)-pyridin-4-yl]-thiazol-2-ylamino}-benzenesulfonamide.TFA] |
| 0.38 µM | 0.17 µM | 0.073 µM | CCN1CCN(c2ccc(-c3csc(Nc4cc(S(N)(=O)=O)ccc4OC(C)C)n3)cn2)CC1 [Example 38, 4-Isopropoxy-3-{4-[6-(4-ethyl-piperazin-1-yl)-pyridin-3-yl]-thiazol-2-ylamino}-benzenesulfonamide.TFA] |
| 0.17 µM | 0.087 µM | 0.07 µM | CC(C)Oc1ccc(S(N)(=O)=O)cc1Nc1nc(-c2ccc(N3CCN(C(C)C)CC3)nc2)cs1 [Example 39, 4-Isopropoxy-3-{4-[6-(4-isopropyl-piperazin-1-yl)-pyridin-3-yl]-thiazol-2-ylamino}-benzenesulfonamide.TFA] |
| 0.33 µM | 0.087 µM | 0.044 µM | CC(C)Oc1ccc(S(N)(=O)=O)cc1Nc1nc(-c2ccc(N3CCCN(C)CC3)nc2)cs1 [Example 40, 4-Isopropoxy-3-{4-[6-(4-methyl-[1,4]diazepan-1-yl)-pyridin-3-yl]-thiazol-2-ylamino}-benzenesulfonamideamide.TFA] |
| 3.7 µM | 0.37 µM | 0.47 µM | CC(C)Oc1ccc(S(N)(=O)=O)cc1Nc1nc(-c2ccc(C(=O)O)nc2)cs1 [Example 45, 5-[2-(2-Isopropoxy-5-sulfamoyl-phenylamino)-thiazol-4-yl]-pyridine-2-carboxylic acid.HCl] |
| 6.6 µM | 1.3 µM | 1.3 µM | CC(C)Oc1ccc(S(N)(=O)=O)cc1Nc1nc(-c2ccc(C(=O)N3CCN(C)CC3)nc2)cs1 [Example 46, 4-Isopropoxy-3-{4-[6-(4-methyl-piperazine-1-carbonyl)-pyridin-3-yl]-thiazol-2-ylamino}-benzenesulfonamide.TFA] |
